Consider 24 molecules from PMC11062922 (Nature Chemical Biology, 2023).

Like-named read-outs stand apart in the source and are kept apart here.

The target of one assay is T1, ACOX1 (Homo sapiens, UniProt Q15067).
T1 construct: endogenous in cells
T1 sequence (Q15067 1-660): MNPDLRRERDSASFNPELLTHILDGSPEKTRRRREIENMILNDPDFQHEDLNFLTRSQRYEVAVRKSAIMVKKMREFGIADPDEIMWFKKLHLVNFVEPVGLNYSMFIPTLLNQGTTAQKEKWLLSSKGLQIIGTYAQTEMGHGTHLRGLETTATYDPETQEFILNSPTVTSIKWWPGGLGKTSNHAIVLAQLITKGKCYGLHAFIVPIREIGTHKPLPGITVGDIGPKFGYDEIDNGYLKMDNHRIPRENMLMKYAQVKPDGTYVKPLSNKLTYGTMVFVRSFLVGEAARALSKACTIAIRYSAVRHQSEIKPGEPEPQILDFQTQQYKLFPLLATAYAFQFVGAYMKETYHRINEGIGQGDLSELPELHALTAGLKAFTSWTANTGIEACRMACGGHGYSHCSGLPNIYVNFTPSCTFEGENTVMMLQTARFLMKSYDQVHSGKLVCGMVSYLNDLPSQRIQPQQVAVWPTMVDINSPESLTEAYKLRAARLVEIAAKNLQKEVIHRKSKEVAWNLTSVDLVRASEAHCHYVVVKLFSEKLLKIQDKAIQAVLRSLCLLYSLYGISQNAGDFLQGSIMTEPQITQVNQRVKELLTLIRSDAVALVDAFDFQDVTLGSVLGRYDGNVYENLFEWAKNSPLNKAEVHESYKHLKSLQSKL
In words: Kinobeads two-dose competition binding: ACOX1.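 Also: competition of compounds with immobilized broad-spectrum kinase inhibitor beads in cell lysate at 100 and 1,000 nM, 45 min at 4 °C, bead-bound protein quantified by label-free MS versus DMSO.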 The conditions noted are these: sheet CATDS matrix 2; Gene Name ACOX1.

A further assay has as its target ABL1 (Homo sapiens, UniProt P00519). The experiment in a line: Kinobeads two-dose competition binding: ABL1. The conditions noted are these: sheet CATDS matrix 2; Gene Name ABL1.
Another assay deals with T2, ACAD11 (Homo sapiens, UniProt Q709F0).
T2 construct: endogenous in cells
T2 sequence (Q709F0 1-780): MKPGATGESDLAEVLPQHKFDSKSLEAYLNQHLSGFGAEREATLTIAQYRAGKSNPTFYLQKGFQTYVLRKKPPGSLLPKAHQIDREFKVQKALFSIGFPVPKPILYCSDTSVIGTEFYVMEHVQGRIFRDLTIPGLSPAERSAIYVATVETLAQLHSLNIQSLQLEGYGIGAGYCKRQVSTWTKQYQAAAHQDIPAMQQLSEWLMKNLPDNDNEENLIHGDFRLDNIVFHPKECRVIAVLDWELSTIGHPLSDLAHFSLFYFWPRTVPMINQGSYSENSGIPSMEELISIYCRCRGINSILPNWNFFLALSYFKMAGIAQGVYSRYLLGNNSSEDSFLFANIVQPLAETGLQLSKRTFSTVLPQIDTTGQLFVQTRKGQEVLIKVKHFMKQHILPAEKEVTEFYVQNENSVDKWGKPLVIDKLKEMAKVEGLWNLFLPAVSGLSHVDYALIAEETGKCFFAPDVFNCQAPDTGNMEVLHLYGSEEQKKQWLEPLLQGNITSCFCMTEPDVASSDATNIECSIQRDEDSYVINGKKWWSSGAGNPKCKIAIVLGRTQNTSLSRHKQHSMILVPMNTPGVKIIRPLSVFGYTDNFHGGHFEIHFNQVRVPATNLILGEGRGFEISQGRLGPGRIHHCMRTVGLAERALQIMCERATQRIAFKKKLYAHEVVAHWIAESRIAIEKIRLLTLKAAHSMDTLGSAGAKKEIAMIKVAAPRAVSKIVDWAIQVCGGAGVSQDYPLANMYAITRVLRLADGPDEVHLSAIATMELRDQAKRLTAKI
In words: Kinobeads two-dose competition binding: ACAD11. To be noted: sheet CATDS matrix 2; Gene Name ACAD11.

Another assay addresses T3, ABL2 (Homo sapiens, UniProt P42684).
T3 construct: endogenous in cells
The experiment in a line: Kinobeads two-dose competition binding: ABL2. To be noted: sheet CATDS matrix 2; Gene Name ABL2.

In the next assay the target is T4, AAK1 (Homo sapiens, UniProt Q2M2I8).
T4 construct: to maximize the representation of endogenous proteins; endogenous in cells
T4 sequence (Q2M2I8 whole entry): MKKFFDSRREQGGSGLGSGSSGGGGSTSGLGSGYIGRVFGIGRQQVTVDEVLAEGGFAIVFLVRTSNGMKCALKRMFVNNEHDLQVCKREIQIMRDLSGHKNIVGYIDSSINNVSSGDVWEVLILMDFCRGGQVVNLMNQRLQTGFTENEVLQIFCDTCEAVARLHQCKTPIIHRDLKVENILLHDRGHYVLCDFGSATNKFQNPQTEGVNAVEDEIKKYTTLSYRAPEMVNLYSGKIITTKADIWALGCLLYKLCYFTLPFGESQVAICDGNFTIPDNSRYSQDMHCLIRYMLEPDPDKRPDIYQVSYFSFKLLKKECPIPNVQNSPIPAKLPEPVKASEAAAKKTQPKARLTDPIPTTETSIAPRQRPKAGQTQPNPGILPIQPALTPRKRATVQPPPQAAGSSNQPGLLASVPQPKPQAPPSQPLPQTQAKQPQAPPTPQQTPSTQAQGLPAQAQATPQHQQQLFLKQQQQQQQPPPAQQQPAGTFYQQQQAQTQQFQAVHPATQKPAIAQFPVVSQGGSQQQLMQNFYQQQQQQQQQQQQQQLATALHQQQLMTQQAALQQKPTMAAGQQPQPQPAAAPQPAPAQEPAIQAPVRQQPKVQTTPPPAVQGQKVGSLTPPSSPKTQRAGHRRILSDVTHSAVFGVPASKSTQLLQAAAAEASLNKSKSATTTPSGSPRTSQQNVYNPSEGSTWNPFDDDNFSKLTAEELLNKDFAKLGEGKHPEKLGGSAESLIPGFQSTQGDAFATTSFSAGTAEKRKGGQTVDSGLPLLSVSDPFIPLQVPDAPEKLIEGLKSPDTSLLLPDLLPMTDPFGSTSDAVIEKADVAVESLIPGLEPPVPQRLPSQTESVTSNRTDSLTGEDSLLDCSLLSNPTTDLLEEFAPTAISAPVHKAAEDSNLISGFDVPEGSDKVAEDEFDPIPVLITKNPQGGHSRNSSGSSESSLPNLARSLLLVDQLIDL
In words: Kinobeads two-dose competition binding: AAK1.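 As to all read-outs here: kinobeads competition pulldown from cell lysate, compound preincubated 45 min at 4 °C, bead-bound protein measured by label-free mass spectrometry against DMSO vehicle control.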 The conditions noted are these: for potency estimated from few doses: read-out: Kinobeads Drugmatrix - all: apparent Kd, AAK1; for CATDS: sheet CATDS matrix 2, Gene Name AAK1.

T3 sequence (P42684 whole entry): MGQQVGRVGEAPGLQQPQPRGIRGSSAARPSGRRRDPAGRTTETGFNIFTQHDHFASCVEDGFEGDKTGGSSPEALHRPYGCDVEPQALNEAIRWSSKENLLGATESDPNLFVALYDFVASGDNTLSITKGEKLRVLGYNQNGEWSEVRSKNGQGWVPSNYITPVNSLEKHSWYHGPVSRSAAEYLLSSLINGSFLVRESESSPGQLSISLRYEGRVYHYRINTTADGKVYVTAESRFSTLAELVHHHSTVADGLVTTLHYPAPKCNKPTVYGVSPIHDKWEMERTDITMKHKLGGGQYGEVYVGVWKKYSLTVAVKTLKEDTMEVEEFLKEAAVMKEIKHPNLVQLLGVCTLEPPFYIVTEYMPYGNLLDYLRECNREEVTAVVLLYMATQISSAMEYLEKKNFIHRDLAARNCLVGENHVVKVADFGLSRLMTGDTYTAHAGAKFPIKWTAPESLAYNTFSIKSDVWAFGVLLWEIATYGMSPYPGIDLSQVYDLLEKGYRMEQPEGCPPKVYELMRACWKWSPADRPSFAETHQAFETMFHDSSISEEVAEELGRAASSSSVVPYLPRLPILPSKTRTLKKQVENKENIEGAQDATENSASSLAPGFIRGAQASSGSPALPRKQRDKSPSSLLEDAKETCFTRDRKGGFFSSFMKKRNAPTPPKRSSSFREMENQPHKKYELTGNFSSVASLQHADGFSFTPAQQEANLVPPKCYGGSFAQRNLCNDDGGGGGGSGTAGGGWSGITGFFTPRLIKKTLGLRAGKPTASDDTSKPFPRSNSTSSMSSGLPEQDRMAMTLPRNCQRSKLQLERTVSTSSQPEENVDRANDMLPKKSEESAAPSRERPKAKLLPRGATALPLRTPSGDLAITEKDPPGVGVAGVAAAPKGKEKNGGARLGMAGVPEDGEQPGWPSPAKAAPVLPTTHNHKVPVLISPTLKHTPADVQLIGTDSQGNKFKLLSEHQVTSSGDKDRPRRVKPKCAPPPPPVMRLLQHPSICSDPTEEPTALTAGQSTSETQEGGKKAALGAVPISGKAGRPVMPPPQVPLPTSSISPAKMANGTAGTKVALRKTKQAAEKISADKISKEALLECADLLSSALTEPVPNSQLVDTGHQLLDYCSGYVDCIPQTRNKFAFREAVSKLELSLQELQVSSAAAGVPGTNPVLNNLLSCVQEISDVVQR
ABL1, sequence (P00519 28-1130 limits assumed): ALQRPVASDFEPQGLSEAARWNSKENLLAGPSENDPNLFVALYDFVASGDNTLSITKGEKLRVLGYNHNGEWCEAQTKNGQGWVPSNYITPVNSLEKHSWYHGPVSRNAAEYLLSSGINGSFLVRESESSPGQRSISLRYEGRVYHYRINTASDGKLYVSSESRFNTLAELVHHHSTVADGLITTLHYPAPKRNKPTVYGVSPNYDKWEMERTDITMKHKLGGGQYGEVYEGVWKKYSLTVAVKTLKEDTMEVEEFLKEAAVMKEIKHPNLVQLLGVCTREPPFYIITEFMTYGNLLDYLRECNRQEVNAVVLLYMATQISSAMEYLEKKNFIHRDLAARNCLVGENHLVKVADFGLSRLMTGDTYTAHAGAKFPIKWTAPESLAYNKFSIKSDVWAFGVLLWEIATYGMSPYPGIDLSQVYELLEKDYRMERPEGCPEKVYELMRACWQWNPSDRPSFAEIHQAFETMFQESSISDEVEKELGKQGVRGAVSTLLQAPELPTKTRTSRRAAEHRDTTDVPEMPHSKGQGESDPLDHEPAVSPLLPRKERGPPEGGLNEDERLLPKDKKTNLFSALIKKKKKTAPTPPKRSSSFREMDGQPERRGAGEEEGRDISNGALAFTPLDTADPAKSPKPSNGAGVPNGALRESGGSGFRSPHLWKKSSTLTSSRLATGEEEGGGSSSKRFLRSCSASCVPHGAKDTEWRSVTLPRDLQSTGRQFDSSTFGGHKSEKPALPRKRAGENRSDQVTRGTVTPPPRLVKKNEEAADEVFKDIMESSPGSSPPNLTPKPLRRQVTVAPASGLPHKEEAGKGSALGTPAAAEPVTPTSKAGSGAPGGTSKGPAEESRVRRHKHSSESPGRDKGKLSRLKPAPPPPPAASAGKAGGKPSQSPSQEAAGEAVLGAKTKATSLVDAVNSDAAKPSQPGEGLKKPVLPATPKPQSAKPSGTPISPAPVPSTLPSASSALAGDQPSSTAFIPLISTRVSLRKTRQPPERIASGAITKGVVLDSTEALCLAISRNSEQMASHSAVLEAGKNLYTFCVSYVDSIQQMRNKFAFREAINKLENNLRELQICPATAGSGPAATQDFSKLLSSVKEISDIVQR

For the molecule `O=c1[nH]ccc2nc(N[C@@H]3CCNC3)nc(Nc3cc(Cl)cc(Cl)c3)c12` [GSK2188764A], the CATDS on ACOX1 is given as 0; at ABL1 it was 0; at ACAD11, 0; at ABL2, 0; on AAK1 it was 0.04842. At AAK1, the potency estimated from few doses was 114 nM.

In the case of `Cc1cnc(N)c(/C=C/c2cncc(C(=O)NCCc3ccc(Cl)cc3Cl)c2)c1` [GSK190937A], the CATDS at ACOX1, on ABL1, on ACAD11, at ABL2 and at AAK1 was 0 throughout.

On to `COc1cc2c(cc1Nc1nc(Nc3ccsc3C(N)=O)c3cc[nH]c3n1)N(C(=O)CN(C)C)CCC2(C)C` [GSK2163632A], for which the CATDS on ACOX1, at ABL1, on ACAD11, on ABL2 and on AAK1 was 0 in each case.

As to `Cn1cnc2c(F)c(Nc3ccc(Br)cc3F)c(C(=O)NOCCO)cc21` [Binimetinib, reference compound], the CATDS on ACOX1, at ABL1, on ACAD11, on ABL2 and on AAK1 was 0 each time.

Consider `COc1ncc(-c2cc(-c3ncc(CN4C[C@@H](C)O[C@@H](C)C4)o3)c3cn[nH]c3c2)cc1NS(C)(=O)=O` [GSK2292767], for which the CATDS on ACOX1, at ABL1, on ACAD11, on ABL2 and on AAK1 was 0 throughout.

`Cc1ccc(C)c(NC(=O)NC2CCN(c3ccnc(Nc4ccc(F)cc4)n3)C2)c1` (centres unmarked) [GSK1379720A]: the CATDS at ACOX1, at ABL1, at ACAD11, at ABL2 and on AAK1 was 0 throughout.

For `CCC(NN(C)C)=C1C(=O)Nc2ccc(C(C)=O)cc21` [BI00036838], the CATDS on ACOX1, at ABL1, on ACAD11, on ABL2 and on AAK1 was 0 each time.

For `COc1ccc(C[C@@H](CN)NC(=O)c2cc(Br)c(-c3ccnc4[nH]ccc34)s2)cc1` [GSK1389063A], the CATDS on ACOX1, at ABL1, on ACAD11, at ABL2 and at AAK1 was 0 each time.

With `Cc1ccc(NC(=O)Nc2cc(C(C)(C)C)nn2-c2ccccc2)cc1` [GSK1014915A], the CATDS on ACOX1, at ABL1, at ACAD11, on ABL2 and at AAK1 was 0 throughout.

With `COc1cc(N2CCN(C(C)C)CC2)ccc1Nc1nc(Nc2ccc(F)cc2C(N)=O)c2cc[nH]c2n1` [GSK1220512A], the CATDS on ACOX1, on ABL1, on ACAD11, at ABL2 and on AAK1 was 0 throughout.

As for `O=C(Nc1ccccc1F)NC1CCN(c2ccnc(Nc3ccc(F)cc3)n2)C1` (centres unmarked) [GSK1379722A], the CATDS at ACOX1, at ABL1, at ACAD11, on ABL2 and at AAK1 was 0 in each case.

On to `COC(=O)C(NC(=O)NC1CCN(c2ccnc(Nc3ccc(F)cc3)n2)C1)c1ccccc1` (centres unmarked) [GSK1379712_KCGS], for which the CATDS at ACOX1, on ABL1, on ACAD11, on ABL2 and at AAK1 was 0 in each case.

Regarding `Cn1cc(C2=C(c3cn(C4CCN(Cc5ccccn5)CC4)c4ccccc34)C(=O)NC2=O)c2ccccc21` [Enzastaurin, reference compound], the CATDS at ACOX1, at ABL1, at ACAD11, at ABL2 and on AAK1 was 0 throughout.

On to `CCCN1CCC(c2ccc(Nc3nc(Nc4cc(F)ccc4C(N)=O)c4cc[nH]c4n3)c(OC)c2)CC1` [GSK1326255A], for which the CATDS on ACOX1, on ABL1, on ACAD11, on ABL2 and at AAK1 was 0 in each case.

With `COc1cc(Nc2ncc(F)c(Nc3ccc4c(n3)N(COP(=O)(O)O)C(=O)C(C)(C)O4)n2)cc(OC)c1OC` [Fostamatinib, reference compound], the CATDS on ACOX1, on ABL1, at ACAD11, on ABL2 and on AAK1 was 0 throughout.

Regarding `NC(=O)c1sc(-n2cnc3ccccc32)cc1OCc1ccccc1F` [GSK1024306A], the CATDS at ACOX1, on ABL1, at ACAD11, on ABL2 and at AAK1 was 0 in each case.

For `CC(C)c1cc(-c2ccc3c(N)n[nH]c3c2)nc(N)n1` [GSK2250882A], the CATDS is reported as 0 on ACOX1; 0 at ABL1; 0 at ACAD11; 0 at ABL2; 0.3935 on AAK1.

Consider `COc1ccc(Nc2nccc(NCCNC(=O)Nc3cc(C)ccc3C)n2)cc1` [GSK1379899A], for which the CATDS at ACOX1, at ABL1, at ACAD11, on ABL2 and on AAK1 was 0 throughout. The potency estimated from few doses at AAK1 (sheet "Kinobeads Drugmatrix - all", unit inferred, same values below 1000 recur in sheet "nanomolar") was > 1000 nM.

`CCCc1ccc(S(=O)(=O)NC2CCN(c3ccnc(Nc4ccc(OC)cc4)n3)C2)cc1` (centres unmarked) [GSK1379737A]: the CATDS on ACOX1, on ABL1, at ACAD11, on ABL2 and at AAK1 was 0 each time.

Turning to `O=c1cc(N2CCOCC2)nc2n(Cc3ccc(F)c(Cl)c3)ccn12` [GSK2297099A], the CATDS on ACOX1, on ABL1, at ACAD11, on ABL2 and at AAK1 was 0 each time.

`Nc1nc(Nc2ccccc2)cc(-c2ccc3c(N)n[nH]c3c2)n1` [GSK2225749A]: the CATDS on ACOX1 is listed as 0; on ABL1, 0; at ACAD11, 0; on ABL2, 0; at AAK1, 0.2514.

As to `Nc1nc(-c2ccc3c(N)n[nH]c3c2)cc(N2CCCCC2)n1` [GSK2228768A], the CATDS at ACOX1 was 0; at ABL1 it was 0; on ACAD11, 0; at ABL2, 0; at AAK1 it was 0.1964.

Consider `O=c1cc(N2CCOCC2)nc2n(Cc3cccc(Cl)c3Cl)c(C3CC3)nn12` [GSK2358994A], for which the CATDS on ACOX1, on ABL1, at ACAD11, on ABL2 and at AAK1 was 0 each time.

Consider `CCS(=O)(=O)N1CC(CC#N)(n2cc(-c3ncnc4[nH]ccc34)cn2)C1` [Baricitinib, reference compound], for which the CATDS at ACOX1 is given as 0; on ABL1 it was 0; on ACAD11 it was 0; on ABL2, 0; at AAK1 it was 0.1267.
